Common to all, as to assay: competitive TR-FRET assay, BET-BD with acetylated peptide ligand
Common to all, as to type: binding
(TR-FRET usually uses a lanthanide donor and a delayed reading to cut background.)

Assay [1] addresses BRDT (Homo sapiens, UniProt Q58F21). Conditions: BRDT; Table 11 additional modifications; read-out: BRDT EC50. The protocol: (§1) Inhibitor potency was determined using a competitive TR-FRET assay as detailed herein, measuring interaction of the respective BET-BD with an acetylated peptide ligand (Table 2).
Assay [2] concerns the target BRD2-BD2 (Homo sapiens (Human), UniProt P25440). Conditions: for pEC50: Table 11 additional modifications; for 2.1/2.2: ratio of BRD2-BD1 EC50 to BRD2-BD2 EC50 (selectivity). As for the experimental part: as §1
Assay [3] concerns the target BRD2-BD1 (Homo sapiens (Human), UniProt P25440). Conditions: BRD2-BD1; Table 11 additional modifications; read-out: 2.1 EC50. The protocol:
as §1

The target in assay [4] is BRD3-BD1 (Homo sapiens (Human), UniProt Q15059). To be noted: BRD3-BD1; Table 11 additional modifications; read-out: 3.1 EC50. As for the experimental part: as §1
Sequence of BRD3-BD1 (Q15059 34-140): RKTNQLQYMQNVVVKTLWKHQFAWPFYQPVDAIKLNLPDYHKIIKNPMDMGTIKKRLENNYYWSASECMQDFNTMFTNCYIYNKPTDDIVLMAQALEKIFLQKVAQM

Molecules are shown by their SMILES. pEC50: −log10 of the molar value. Read-outs that look alike come from different tables or passages of the source. Where only a bound is given, the exact number is not on record here.

Sequence of BRD2-BD2 (P25440 344-453): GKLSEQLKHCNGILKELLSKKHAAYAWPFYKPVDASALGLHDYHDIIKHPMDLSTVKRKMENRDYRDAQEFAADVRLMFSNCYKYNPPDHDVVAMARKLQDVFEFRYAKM
Sequence of BRD2-BD1 (P25440 74-180): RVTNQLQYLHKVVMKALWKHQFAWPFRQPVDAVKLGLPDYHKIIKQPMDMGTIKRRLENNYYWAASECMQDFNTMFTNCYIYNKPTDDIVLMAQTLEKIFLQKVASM

As usually defined, the pEC50 is −log10 of the EC50, conventionally taken in molar units. Consider `CC(=O)Nc1cccc(-c2ccc3c(c2)[C@H](Nc2ccc(C(C)=O)cc2)C[C@H](C)N3C(C)=O)c1` [compound 17], for which the pEC50 in assay [1] was 5.34; in assay [2] (BRD2-BD2, read-out: 2.2 EC50), 7.15; in assay [3] it was 5.96. Besides, the 2.1/2.2 in assay [2] was determined as 16.
As for `CC(=O)Nc1ccc(-c2ccc3c(c2)[C@H](Nc2ccc(Cl)cc2)C[C@H](C)N3C(C)=O)cc1` [compound 48], the pEC50 in assay [1] is 5.28; in assay [2] (BRD2-BD2, read-out: 2.2 EC50), 6.44; in assay [3], 5.72; in assay [4], 5.72. The 2.1/2.2 in assay [2] came out at 5.3.
Turning to `CC(=O)Nc1cccc(-c2ccc3c(c2)[C@H](NC2CCN(C)CC2)C[C@H](C)N3C(C)=O)c1` [compound 119], in assay [2], the 2.1/2.2 is 2.9.
Regarding `CC(=O)Nc1cccc(-c2ccc3c(c2)[C@H](Nc2ccc(NC(=O)CO)cc2)C[C@H](C)N3C(C)=O)c1` [compound 121], in assay [2], the 2.1/2.2 came out at 33.
With `CC(=O)N(c1ccc(NCC2CC2)cc1)[C@@H]1C[C@H](C)N(C(C)=O)c2ccc(-c3cccc(NC(=O)OC(C)(C)C)c3)cc21` [compound 122], the 2.1/2.2 in assay [2] was 70.
For `CC(=O)Nc1cccc(-c2ccc3c(c2)[C@H](Nc2ccc(NC(=O)C4CC4)cc2)C[C@H](C)N3C(C)=O)c1` [compound 123], the 2.1/2.2 in assay [2] was more than 1000.
Still for that read-out and setting: to `CC(=O)N(c1ccc(NCCC(C)C)cc1)[C@@H]1C[C@H](C)N(C(C)=O)c2ccc(-c3cccc(NC(=O)OC(C)(C)C)c3)cc21` [compound 124] belongs 4.0.
Turning to `C#CCCCC(=O)Nc1cccc(-c2ccc3c(c2)[C@H](Nc2ccc(C(=O)OC)cc2)C[C@H](C)N3C(C)=O)c1` [compound 138], the pEC50 is 5.06 in assay [1]; 7.05 in assay [2] (BRD2-BD2, read-out: 2.2 EC50); 5.34 in assay [3]; 5.74 in assay [4]. Besides, in assay [2], the 2.1/2.2 came to 36.
Turning to `C#CCCNC(=O)c1ccc(N[C@@H]2C[C@H](C)N(C(C)=O)c3ccc(-c4cccc(NC(C)=O)c4)cc32)cc1` [compound 139], the pEC50 in assay [1] was 5.72; in assay [2] (BRD2-BD2, read-out: 2.2 EC50), 6.64; in assay [3], 6.10; in assay [4] it was 6.16. Moreover, the 2.1/2.2 in assay [2] is 3.4.
Turning to `CC(=O)N1c2ccc(-c3cccc(-n4cccn4)c3)cc2[C@H](Nc2ccccc2OC(F)(F)F)C[C@@H]1C` [compound 140], the pEC50 was less than 4.09 in assay [1]; 5.85 in assay [2] (BRD2-BD2, read-out: 2.2 EC50); 4.68 in assay [3]; 4.51 in assay [4]. Also, the 2.1/2.2 in assay [2] is reported as 22.9.
On to `COC(=O)c1ccc(N[C@@H]2C[C@H](C)N(C(C)=O)c3ccc(-c4cccc(NCC5CC5)c4)cc32)cc1` [compound 141], for which the pEC50 in assay [1] was 5.28; in assay [2] (BRD2-BD2, read-out: 2.2 EC50) it was 6.30; in assay [3] it was 5.60; in assay [4], 5.77. Besides, the 2.1/2.2 in assay [2] is 0.015.
On to `COC(=O)c1ccc(N[C@@H]2C[C@H](C)N(C(C)=O)c3ccc(-c4c[nH]cn4)cc32)cc1` [compound 156], for which the 2.1/2.2 in assay [2] is 9.4.
Same read-out and setting: to `COC(=O)c1ccc(N[C@@H]2C[C@H](C)N(C(C)=O)c3ccc(-c4cn(C)cn4)cc32)cc1` [compound 157] belongs 52; to `COC(=O)c1ccc(CN(Cc2ccc(C(=O)OC)cc2)[C@@H]2C[C@H](C)N(C(C)=O)c3ccc(-c4cccc(NC(C)=O)c4)cc32)cc1` [compound 158], 11.
Same read-out and setting: to `COC(=O)c1ccc(CN[C@@H]2C[C@H](C)N(C(C)=O)c3ccc(-c4cccc(NC(C)=O)c4)cc32)cc1` [compound 159] belongs 2.9.
With `CC(=O)Nc1cccc(-c2ccc3c(c2)[C@H](Nc2ccc(C(=O)COC(C)=O)cc2)C[C@H](C)N3C(C)=O)c1` [compound 162], the 2.1/2.2 in assay [2] came out at 21.
Same read-out and setting: with `CC(=O)Nc1cccc(-c2ccc3c(c2)[C@H](Nc2cccc(CN)c2)C[C@H](C)N3C(C)=O)c1` [compound 163] the figure was 6.7; with `COc1cccc(NC2CCN(C(C)=O)c3ccc(-c4cccc(NC(C)=O)c4)cc32)c1` (centres unmarked) [compound 178], 22; with `CC(=O)N1c2ccc(-c3cccc(NCCC(F)(F)F)c3)cc2[C@H](Nc2ccc(C#N)cc2)C[C@@H]1C` [compound 180], 13.
With `CC(=O)Nc1cccc(-c2ccc3c(c2)[C@H](Nc2cccc(C(F)(F)F)c2)C[C@H](C)N3C(C)=O)c1` [compound 181], the pEC50 in assay [2] (BRD2-BD2, read-out: 2.2 EC50) was 6.77; in assay [3], 5.10. In addition, in assay [2], the 2.1/2.2 is recorded as 8.4.
Regarding `CC(=O)N1c2ccc(-c3ccn(C)n3)cc2[C@H](Nc2ccc(C#N)cc2)C[C@@H]1C` [compound 182], the 2.1/2.2 in assay [2] is on record as 23.
On to `CC(=O)N1c2ccc(-c3cccc(NCC4CCOC4)c3)cc2[C@H](Nc2ccc(C#N)cc2)C[C@@H]1C` (some centres unmarked) [compound 183], for which the 2.1/2.2 in assay [2] was determined as 27.
For the molecule `CC(=O)N1c2ccc(-c3cccc(NC(=O)C(C)C)c3)cc2[C@H](Nc2ccc(C#N)cc2)C[C@@H]1C` [compound 184], the pEC50 in assay [2] (BRD2-BD2, read-out: 2.2 EC50) was 6.96; in assay [3], 6.17. For the same molecule, the 2.1/2.2 in assay [2] is 14.
Consider `CC(=O)N1c2ccc(-c3cccc(NC(=O)C(C)(C)C)c3)cc2[C@H](Nc2ccc(C#N)cc2)C[C@@H]1C` [compound 185], for which the pEC50 in assay [2] (BRD2-BD2, read-out: 2.2 EC50) is 7.54; in assay [3] it was 5.74.
`CC(=O)Nc1cccc(-c2ccc3c(c2)[C@H](Nc2ccc(C#N)c(Cl)c2)C[C@H](C)N3C(C)=O)c1` [compound 186]: the pEC50 was 7.23 in assay [2] (BRD2-BD2, read-out: 2.2 EC50) and 5.68 in assay [3].
Turning to `CC(=O)Nc1cccc(-c2ccc3c(c2)[C@H](Nc2ccccc2Cl)C[C@H](C)N3C(C)=O)c1` [compound 187], the pEC50 was 6.92 in assay [2] (BRD2-BD2, read-out: 2.2 EC50) and 5.06 in assay [3].
On to `CC(=O)Nc1cccc(-c2ccc3c(c2)[C@H](Nc2ccc4c(c2)CCNC4)C[C@H](C)N3C(C)=O)c1` [compound 188], for which the pEC50 in assay [2] (BRD2-BD2, read-out: 2.2 EC50) is 8.40; in assay [3], 6.96.
With `COc1cc(C#N)ccc1N[C@@H]1C[C@H](C)N(C(C)=O)c2ccc(-c3cccc(NC(C)=O)c3)cc21` [compound 189], the pEC50 was 7.77 in assay [2] (BRD2-BD2, read-out: 2.2 EC50) and 6.17 in assay [3]. For the same molecule, in assay [2], the 2.1/2.2 is reported as 48.
Regarding `CC(=O)Nc1cccc(-c2ccc3c(c2)[C@H](Nc2cc(F)c(C#N)c(F)c2)C[C@H](C)N3C(C)=O)c1` [compound 190], the pEC50 in assay [2] (BRD2-BD2, read-out: 2.2 EC50) is 6.92; in assay [3], 5.66. In assay [2], the 2.1/2.2 was determined as 37.
As to `COc1cc(N[C@@H]2C[C@H](C)N(C(C)=O)c3ccc(-c4cccc(NC(C)=O)c4)cc32)ccc1C#N` [compound 191], the pEC50 in assay [2] (BRD2-BD2, read-out: 2.2 EC50) was 7.33; in assay [3], 5.92. Moreover, the 2.1/2.2 in assay [2] is recorded as 26.
As to `CC(=O)Nc1cccc(-c2ccc3c(c2)[C@H](Nc2ccc(C#N)c(C(F)(F)F)c2)C[C@H](C)N3C(C)=O)c1` [compound 192], the pEC50 in assay [2] (2.2 EC50, BRD2-BD2) was 7.28; in assay [3] it was 5.32. Besides, in assay [2], the 2.1/2.2 turned out to be 6.3.
As for `CC(=O)Nc1cccc(-c2ccc3c(c2)[C@H](Nc2ccc(C#N)c(F)c2)C[C@H](C)N3C(C)=O)c1` [compound 193], the 2.1/2.2 in assay [2] is reported as 63. Further, the pEC50 in assay [3] is 6.00.
In the case of `CC(=O)Nc1cccc(-c2ccc3c(c2)[C@H](Nc2ccccc2C#N)C[C@H](C)N3C(C)=O)c1` [compound 194], the pEC50 in assay [2] (BRD2-BD2, read-out: 2.2 EC50) was 7.22; in assay [3] it was 5.66. In addition, the 2.1/2.2 in assay [2] is 35.
`CC(=O)Nc1cccc(-c2ccc3c(c2)[C@H](Nc2ccc(C#N)c(C)c2)C[C@H](C)N3C(C)=O)c1` [compound 195]: the pEC50 in assay [2] (BRD2-BD2, read-out: 2.2 EC50) is 7.77; in assay [3] it was 6.06. Also, the 2.1/2.2 in assay [2] is 73.
On to `CC(=O)Nc1cccc(-c2ccc3c(c2)[C@H](Nc2ccc(C#N)cc2Cl)C[C@H](C)N3C(C)=O)c1` [compound 196], for which the pEC50 in assay [2] (BRD2-BD2, read-out: 2.2 EC50) is 7.22; in assay [3], 5.66. In addition, in assay [2], the 2.1/2.2 is 27.
For the molecule `CC(=O)Nc1cccc(-c2ccc3c(c2)[C@H](Nc2ccccc2Cl)C[C@H](C)N3C(C)=O)c1` [compound 197], the pEC50 in assay [2] (BRD2-BD2, read-out: 2.2 EC50) is 7.27; in assay [3] it was 5.46. Besides, the 2.1/2.2 in assay [2] is on record as 39.
In the case of `CC(=O)Nc1cccc(-c2ccc3c(c2)[C@H](Nc2cccc(Cl)c2)C[C@H](C)N3C(C)=O)c1` [compound 198], the pEC50 in assay [2] (BRD2-BD2, read-out: 2.2 EC50) was 7.24; in assay [3], 5.48. Moreover, the 2.1/2.2 in assay [2] came to 19.
With `CC(=O)Nc1cccc(-c2ccc3c(c2)[C@H](Nc2ccc(C#N)cc2C)C[C@H](C)N3C(C)=O)c1` [compound 199], the pEC50 is 7.72 in assay [2] (BRD2-BD2, read-out: 2.2 EC50) and 6.05 in assay [3]. Also, in assay [2], the 2.1/2.2 was 26.
On to `CC(=O)Nc1cccc(-c2ccc3c(c2)[C@H](Nc2ccccc2C)C[C@H](C)N3C(C)=O)c1` [compound 200], for which, in assay [2], the 2.1/2.2 was determined as 92. Also, the pEC50 in assay [3] is 5.70.
Take `CC(=O)N1c2ccc(-c3cc[nH]n3)cc2[C@H](Nc2ccc(F)c(F)c2)C[C@@H]1C` [compound 202]: the 2.1/2.2 in assay [2] is recorded as 36.
Take `CC(=O)N1c2ccc(-c3cc[nH]n3)cc2[C@H](Nc2ccccc2Cl)C[C@@H]1C` [compound 203]: in assay [2], the 2.1/2.2 was determined as 51.
On to `CC(=O)Nc1cccc(-c2ccc3c(c2)[C@H](Nc2ccc(F)cc2Cl)C[C@H](C)N3C(C)=O)c1` [compound 204], for which, in assay [2], the 2.1/2.2 is reported as 36.
Turning to `CC(=O)N1c2ccc(-c3cccc(NC(=O)C(C)(C)C)c3)cc2[C@H](Nc2ccccc2Cl)C[C@@H]1C` [compound 205], the 2.1/2.2 in assay [2] is reported as 64.
With `CC(=O)N1c2ccc(-c3cccc(NC(=O)C(C)(C)C)c3)cc2[C@H](Nc2ccc(Cl)cc2)C[C@@H]1C` [compound 206], in assay [2], the 2.1/2.2 is reported as 57.
Take `CC(=O)N1c2ccc(-c3ccn(-c4ccc(C#N)cc4)n3)cc2[C@H](Nc2ccc(C#N)cc2)C[C@@H]1C` [compound 207]: the 2.1/2.2 in assay [2] is 44.

For the origin of these results see patent US11028051B2, “Tetrahydroquinoline-based bromodomain inhibitors” (St. Jude Children's Research Hospital, priority 2016, dated 2021).
